Measurements: patent US20130023555A1, “KINASE INHIBITOR WITH IMPROVED SOLUBILITY PROFILE” (Abbott Laboratories, priority 2011, published 2013)
Values after ≈ are worked out from the molar mass of the structure shown.

Assays:
[1] = CLND Solubility Assay; assay type: physicochemical; conditions: aqueous buffer, kinetic from dmso stock; 35 μM compound in 10 mM phosphate buffer, pH 7.2
Description: Chemiluminescent nitrogen detection (CLND) method oxidized the analyte to nitrogen oxide that reacted with ozone to provide a photon of light and was a measure of how much compound was in solution. Compounds must contain nitrogens for this experiment. Nitrogen impurities present in the compound will cause falsely high results. • 1. Compound concentration tested was 35 μM in 10 mM phosphate buffer, 7.2. • 2. Compounds were tested in triplicate. • 3. Compound concentration was determined by comparing readings to a caffeine standard curve. One standard curve was run before and after every test plate. For 3 test plates, four standard curves were generated.
Experimental Procedure: • 1. 5 μl of 5 mM test compound in DMSO was added to three adjacent wells in a plate. • 2. 695 μl of 10 mM phosphate buffer, pH 7.2, was added to each well. • 3. The plates were sealed. • 4. The plates were allowed to sonicate for 1 hour. • 5. The plates were shook on a plate orbital shaker for up to 6 hours. • 6. The plates were spinned at 5000 rpm (6000×G) overnight. • 7. Standard curves were prepared by adding 5 μl of stock solutions to wells according to Caffeine Concentrations for Standard Curve table below. • 8. Buffer (10 mM phosphate buffer, pH 7.2, 695 μl) was added. • 9. The plates were sealed. • 10. The plates were loaded onto a TOC/CLND. • 11. The results were analyzed after the run was completed.
The solubility was determined by comparing the reading generated by analysis of the sample to the standard curve. The value was then divided by the number of nitrogens contained in the compound. Corrections for impurities during the synthesis were included in the number of nitrogens. The resulting value was the reported solubility.

[2] = molecular target: T1, CYP3A4 (Homo sapiens, UniProt P08684); experiment: CYP 3A4 Assay (Luc, luminescence, human liver microsomes); assay type: in vitro ADME; conditions: human liver microsomes 0.4 mg/mL, substrate LUC-LIPA
T1 construct: The incubations consisted of human liver microsomal protein at 0.4 mg/ml; from tissue; host or cells: human liver microsomes
Description: Each assay was preformed in ½ well plates. Test compounds were examined at six concentrations in DMSO that were serial diluted to: 2, 0.6, 0.2, 0.07, 0.02, and 0.007 mM (from left to right) and at 100×; 0.5 ul of these dilutions were added to two empty assay plates (resulting in final assay concentrations of 20, 6, 2, 0.7, 0.2, and 0.07 uM. The control and vehicle were added to the plate at 100× with the same dilution scheme.
The incubations consisted of human liver microsomal protein at 0.4 mg/ml in 100 mM KPO4 buffer, 125 uM NADPH and Regeneration mix in phosphate buffer at pH 7.4.
CYP3A4 requires a pre-incubation using the following recipe:
• CYP3A4—5 μM LUC-LIPA in 100 mM phosphate buffer pH 7.4 • Assay Procedure for CYP3A4: • 1. 40 uL of the Pre-incubation Mixture was added to all wells of the assay plates. • 2. Plates were pre-incubated for 10 minutes at 37° C., with shaking or rocking. (No pre-read is necessary for the luminescence assays CYP2C9 and CYP3A4). • 3. 10 μL of Substrate Solution was added to all wells of the assay plates. • 4. Plates were incubated for an additional 25 minutes at 37° C., with shaking or rocking. • 5. added 50 μl of stop/developer from respective kits, and incubated for 20 minutes to 2 hours with shaking at room temperature prior to reading. […]

[3] = molecular target: T2, cKIT (Homo sapiens, UniProt P10721); experiment: HTRF in vitro kinase assay, cKIT; assay type: biochemical; conditions: 1 mM ATP
T2 construct: GST
Description: To determine the activity of the various kinases, a homogenous time-resolved fluorescence (HTRF) in vitro kinase assay was used. (Mathis, G., HTRF(R) Technology. J Biomol Screen, 1999. 4(6): p. 309-314; Alfred J. Kolb, Paul V. Kaplita, David J. Hayes, Young-Whan Park, Christine Pernell, John S. Major and Gerard Mathis, Drug Discovery Today, 1998, 3, 333-342.)
For example for KDR, cKIT, FLT1, CSF1R and FTL3, purified enzyme was mixed with 0.5 μM N-biotinylated substrate (Biotin-Ahx-[…]-amide (SEQ. ID. 1)), various concentrations of inhibitor in reaction buffer (50 mM HEPES, pH 7.1, 10 mM MgCl2, 2 mM MnCl2, 0.1% BSA and 1 mM DTT, 40 μL final volume), ATP (1 mM final conc.) in a black 384-well plate. After 60 minutes incubation at room temperature, the reaction was quenched by addition of a buffered EDTA solution (final approximate concentrations: 30 mM EDTA, 0.1% BSA, 0.1% Triton X-100 and 0.24M KF) and a solution of revelation agents (to give 0.084 ng/well streptavidin-XL-665 (Cis-Bio) and 6.5 ng/well antiphsophotyrosine mAb PT66-K Europium kryptate) was added to the reaction mixture. The quenched reaction was allowed to stand at room temperature for 3 hours and was then read in a time-resolved fluorescence detector (InVision, Perkin-Elmer) at 620 nm and 665 nm sequentially with excitation. The ratio between the signal of 620 nm and 665 nm was used in the calculation of the IC50.

[4] = Determination of Thermodynamic Solubility; assay type: physicochemical; conditions: for solubility: thermodynamic from solid
Description: Aqueous pH 7.4 and PEG 300 samples were tested at 25° C. Excess amount of the bulk drug was weighed out and mixed with an aliquot of target media in a clear glass vial (n=3/solvent). The vial was capped, wrapped with aluminum foil, and tumbled in a 25° C. water bath. When equilibration was completed, the samples were removed from the water bath and the final pH was measured, if applicable. The samples were centrifuged at 25° C. at 3000 rpm for 20 minutes. The supernatant was filtered through 4 mm 0.45 μm PTFE syringe filters. The filtrate was assayed after appropriate dilution (no dilution required for aqueous samples). The concentration of the sample was calculated against a calibration curve for the compound.
Solubility in pH 7.4 buffer was carried out as described above, except samples were not centrifuged before filtration. All other experimental steps were the same. PEG 300 and PEG 400 solubility were done at ambient temperature. Excess amount of the bulk drug was weighed out and mixed with an aliquot of target media in a clear glass vial with a small stir bar (n=3). The vials were placed on the stirrer at ˜500 rpm and allowed to equilibrate over the weekend. Samples were filtered through 13 mm 0.45 μm GHP syringe filters. The filtrate was assayed after appropriate dilutions, and concentrations determined against a calibration curve for the compound.

T1 sequence (P08684 whole entry): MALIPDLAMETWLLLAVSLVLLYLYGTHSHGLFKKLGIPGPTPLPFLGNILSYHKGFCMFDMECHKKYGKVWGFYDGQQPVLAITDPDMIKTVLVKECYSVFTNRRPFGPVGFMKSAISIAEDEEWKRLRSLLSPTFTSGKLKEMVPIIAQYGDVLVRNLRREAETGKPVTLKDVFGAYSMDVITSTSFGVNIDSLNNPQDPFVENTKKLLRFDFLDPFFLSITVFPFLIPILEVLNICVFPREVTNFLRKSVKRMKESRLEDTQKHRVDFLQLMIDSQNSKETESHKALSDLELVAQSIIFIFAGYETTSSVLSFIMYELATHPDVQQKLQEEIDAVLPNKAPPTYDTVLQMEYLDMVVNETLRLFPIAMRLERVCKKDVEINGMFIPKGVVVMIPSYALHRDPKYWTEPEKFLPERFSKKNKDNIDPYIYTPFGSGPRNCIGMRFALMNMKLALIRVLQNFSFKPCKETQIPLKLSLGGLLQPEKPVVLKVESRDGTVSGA
T2 sequence (P10721 544-976 limits assumed): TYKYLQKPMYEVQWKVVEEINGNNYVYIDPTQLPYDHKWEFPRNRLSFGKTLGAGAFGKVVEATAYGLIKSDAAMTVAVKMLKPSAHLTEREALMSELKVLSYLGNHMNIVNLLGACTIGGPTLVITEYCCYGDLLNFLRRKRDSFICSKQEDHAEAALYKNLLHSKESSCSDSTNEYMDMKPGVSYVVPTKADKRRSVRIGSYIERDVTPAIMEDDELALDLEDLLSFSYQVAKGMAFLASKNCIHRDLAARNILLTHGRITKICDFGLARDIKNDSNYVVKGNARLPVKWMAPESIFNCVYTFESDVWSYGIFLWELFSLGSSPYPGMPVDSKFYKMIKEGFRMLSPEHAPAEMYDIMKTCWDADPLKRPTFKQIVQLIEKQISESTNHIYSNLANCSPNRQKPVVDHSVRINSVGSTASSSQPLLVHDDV

solubility [1]: 70.8 µM (≈ 37.8 µg/mL)
IC50 [2]: > 20000 nM
IC50 [3]: 35 nM
solubility ([4]; PEG 300, 25 °C, organic solvent or mixture, PEG 300, Example 2 at 25° C., Example 1 at ambient temperature, read-out: Solubility (PEG300)): 132 mg/mL (≈ 247 mM)
Solubility (PEG300) ([4]; PEG 300, Example 2 at 25° C., Example 1 at ambient temperature): >125 mg/mL
solubility ([4]; PEG 400, organic solvent or mixture, PEG 400, ambient temperature, read-out: Solubility PEG 400): 124 mg/mL (≈ 232 mM)
solubility ([4]; phosphate buffer, 25 °C, pH 7.4, aqueous buffer, 50 mM phosphate pH 7.4 buffer, 25° C., read-out: Solubility pH 7.4): 0.0171 mg/mL (≈ 0.032 mM)
SMILES: CCN(CC)CCCNC(=O)c1cnc(N)c2c(-c3ccc(NC(=O)Nc4cccc(F)c4)cc3)csc12 [Example 1, 4-amino-N-[3-(diethylamino)propyl]-3-(4-{[(3-fluorophenyl)carbamoyl]amino}phenyl)thieno[3,2-c]pyridine-7-carboxamide]
